Assay results from patent US20080287491A1, “Tetrahydroquinoline Derivative for Treating Nicotine Craving” (priority 2003, published 2008).
Entries after “also recorded” stand apart in the source; their conditions may differ. Where a name gives a salt, the structure may show the parent alone.

Key:
[1] = test system: nicotine craving in smokers abstinent for 3 days from cigarettes; experiment: QSU-Brief nicotine craving questionnaire, single-dose enforced abstinence study; format: in vivo, human; details: single dose 120 mg iv
Procedure: The ability of the compound of formula (I) or pharmaceutically acceptable salts thereof to reduce nicotine craving in smokers was measured by means of self-administered questionnaires on Smoking Craving/Urge-Brief (QSU-Brief), as described by Tiffany S T, & Christen A G Cox L S, Nicotine and Tobacco Research, 3: 7-16, 2001. The QSU-Brief is a specific craving scale that consists of 10 items scored on a scale from 1 to 7. The higher average score corresponds to the higher intensity of nicotine craving. The QSU-Brief has 2 factors: factor 1 refers to the anticipation of pleasure from smoke and factor 2 refers to anticipation of relief from negative affects of abstinence. The study investigated nicotine craving in smokers abstinent for 3 days from cigarettes (enforced abstinence model) receiving either a single dose 120 mg iv of the compound of formula (I) as meglumine salt (Compound) or a single dose of placebo. Self-administered questionnaires (QSU-Brief), were administered at pre-dose and 3, 6 and 12 hours post dose to evaluate craving.

[2] = test system: nicotine craving in smokers abstinent for 72 hours from cigarettes; experiment: QSU-Brief nicotine craving questionnaire, repeated-dose three-period crossover enforced abstinence study; format: in vivo, human; details: 31 smoker volunteers; 120 mg/day intravenously for 7 days; 72 hours of abstinence from Day 5; FIG. 1
Procedure: The ability of the compound of formula (I) or pharmaceutically acceptable salts thereof to reduce nicotine craving in smokers was measured by means of self-administered questionnaires on Smoking Craving/Urge-Brief (QSU-Brief), as described by Tiffany S T, & Christen A G Cox L S, Nicotine and Tobacco Research, 3: 7-16, 2001. The QSU-Brief is a specific craving scale that consists of 10 items scored on a scale from 1 to 7. The higher average score corresponds to the higher intensity of nicotine craving. The QSU-Brief has 2 factors: factor 1 refers to the anticipation of pleasure from smoke and factor 2 refers to anticipation of relief from negative affects of abstinence. A further study investigated nicotine craving in smokers abstinent for 72 hours from cigarettes (enforced abstinence model) receiving either repeated administrations of the compound of formula (I) as meglumine salt (Compound) or placebo. […] Each subject was exposed to 3 different experimental conditions: 1) Compound (120 mg/day) was administered intravenously for 7 days starting on Day 1 and quitted smoking abruptly on Day 5 for 72 hours (i.e. non-smoking period;) 2) Placebo was administered intravenously for 7 days starting on Day 1 and quitted smoking abruptly on Day 5 for 72 hours (i.e. non-smoking period;) 3) allowed to smoke for 7 consecutive days (i.e. free smoking period). […]

In the case of `O=C(O)[C@H]1C/C(=C2/CCN(c3ccccc3)C2=O)c2ccc(Cl)cc2N1` [Compound, (2R,4E)-7-chloro-4-(2-oxo-1-phenyl-3-pyrrolidinylidene)-1,2,3,4-tetrahydro-2-quinolinecarboxylic acid, (2R,3R,4R,5S)-6-methylamino-hexane-1,2,3,4,5-pentanol (meglumine) salt (form 2)], the “QSU-Brief: Craving Factor 2 (average during abstinence)” value ([1]; QSU-Brief items scored 1 to 7, pre-dose and 3, 6 and 12 hours post dose, placebo 4.0) is reported as 3.6, the “Average craving factor 2 compared with placebo” value ([1]; versus abstinent smokers receiving placebo) is reported as “significant average lower craving factor 2” and the “Nicotine craving level (QSU-Brief) compared with placebo” value [2] is reported as “showed reduction in nicotine craving; also recorded: reduced the nicotine craving level”.
